According to patent US9731001B2, “Three-dimensional cavities of dendritic cell immunoreceptor (DCIR), compounds binding thereto and therapeutic applications related to inhibition of human immunodeficiency virus type-1 (HIV-1)” (priority 2011, dated 2017):
“Also recorded” adds a separate entry of the source.

How the values were obtained:
Assay type in all cases: cell-based
DCIR = target: T1, DCIR (Homo sapiens, UniProt Q9UMR7); assay: HIV-1 binding/entry assay on Raji-CD4-DCIR cells (cell-associated p24); settings: 10 μM pre-treatment 10 min; NL4-3 60 min; p24 content
T1 construct: expressed in transfected cells; host or cells: Raji-CD4 (human B cell line stably expressing human CD4), retroviral transduction
T1 sequence (Q9UMR7 1-237): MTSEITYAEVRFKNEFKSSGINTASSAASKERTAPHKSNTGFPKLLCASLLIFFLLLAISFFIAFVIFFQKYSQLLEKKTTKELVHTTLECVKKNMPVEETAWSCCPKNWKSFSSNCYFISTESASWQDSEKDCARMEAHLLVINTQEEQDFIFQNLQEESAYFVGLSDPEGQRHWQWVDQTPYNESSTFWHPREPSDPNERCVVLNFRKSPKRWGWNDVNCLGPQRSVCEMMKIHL
Protocol: FIG. 4 is a bar graph showing that inhibitors decrease HIV-1 binding on DCIR. Raji-CD4-DCIR cells were treated with 10 μM of four site A inhibitors (A1, A2, A3 and A4) and three site B inhibitors (B1, B2 and B3) (or with vehicle (DMSO) only) for 10 min at 37° C. Thereafter, cells were pulsed with NL4-3 for 60 min. After three washes with PBS to remove unadsorbed virus, the abundance of cell-associated viruses was quantified by measuring p24 content. Data shown correspond to the means±SEM of three independent experiments performed with triplicate samples. The asterisk (*) denotes statistically significant data (*, P<0.05, ** P<0.01, *** P<0.001).
(§1) Where indicated, 1×10^6 parental Raji-CD4 cells (DCIR-negative), Raji-CD4-DCIR or Raji-DC-SIGN transfectants were pre-treated with the indicated amount of a chemical inhibitor for 10 min. Cells were then pulsed with NL4-3 (an equivalent of 100 ng of p24) for 60 min at 37° C. The virus-cell mixture was then washed three times with PBS to remove unbound virus and re-suspended in PBS containing 1% BSA. Binding/entry was then determined by the p24 content by ELISA as above. For the infection assay, Raji-CD4 and Raji-CD4-DCIR (1×10^6 cells) were exposed to NL4-3 viral stock (100 ng of p24) for 2 h at 37° C. After three washes with PBS to remove excess virus, cells were maintained in culture for up to 9 days. Cell-free culture supernatants were collected at the indicated time points and assayed for p24 content.

HIV-1 (NL4-3) = assay: HIV-1 infection assay on Raji-CD4 and Raji-CD4-DCIR cells (p24 in supernatant); settings: Raji-CD4 vs Raji-CD4-DCIR, NL4-3 2 h, culture 3 d
Protocol: FIG. 5 is a bar graph showing that specific inhibitors against the site A (A1, A4) and site B (B1, B2) decrease infectivity of Raji-CD4-DCIR. Raji-CD4 and Raji-CD4-DCIR were treated with the inhibitors selected following experiments described in FIG. 4, or DMSO. Cells were then exposed to NL4-3 for 2 h, rinsed and maintained in culture for 3d. Cell-free culture supernatants were collected and assayed for p24 content. Data shown correspond to the means±SEM from 3 independent experiments performed with triplicate samples. The asterisk (*) denotes statistically significant data (*, P<0.05, ** P<0.01, *** P<0.001).
as §1

DC-SIGN = target: T2, DC-SIGN (Homo sapiens, UniProt Q9NNX6); assay: HIV-1 binding to Raji-DC-SIGN cells (p24); settings: NL4-3 60 min
T2 construct: expressed in transfected cells; host or cells: Raji cells stably transfected with a DC-SIGN plasmid
T2 sequence (Q9NNX6 1-404): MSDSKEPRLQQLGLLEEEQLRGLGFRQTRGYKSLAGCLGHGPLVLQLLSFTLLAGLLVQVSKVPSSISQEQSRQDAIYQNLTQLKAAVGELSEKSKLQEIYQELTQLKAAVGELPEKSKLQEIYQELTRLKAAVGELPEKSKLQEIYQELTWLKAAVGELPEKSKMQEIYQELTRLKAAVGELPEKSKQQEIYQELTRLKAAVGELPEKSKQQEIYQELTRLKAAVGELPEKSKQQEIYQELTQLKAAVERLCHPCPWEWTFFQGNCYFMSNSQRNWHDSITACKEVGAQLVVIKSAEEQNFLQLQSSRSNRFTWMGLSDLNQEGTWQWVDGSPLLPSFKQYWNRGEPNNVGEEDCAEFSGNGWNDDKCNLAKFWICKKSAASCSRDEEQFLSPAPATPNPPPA
Protocol: Raji-DC-SIGN cells were treated for 10 min at 37° C. with inhibitors A1 and A4 directed against the site A and B1 and B2 directed against the site B, or with DMSO. Afterwards, cells were pulsed with NL4-3 for 60 min, rinsed thrice with PBS were made to remove unadsorbed virus, and cell-associated viruses were quantified by measuring p24 content. Data shown correspond to the means±SEM of 3 independent experiments performed in triplicate.
as §1

HIV-1 (NL4-3/Balenv) [1] = assay: HIV-1 binding assay on iMDDCs (p24); settings: IM-MDDCs, 10 μM pre-incubation 10 min, NL4-3balenv 60 min
Protocol: (§2) FIG. 7 is bar graphs showing that selected site A and site B inhibitors decrease HIV-1 binding and infection of IM-MDDCs. Upper panel: IM-MDDCs were treated with two chemical inhibitors directed against site A (A1 and A4) and two inhibitors directed against site B (B1 and B2) (or DMSO) for 10 min at 37° C. Next, cells were pulsed with NL4-3balenv for 60 min at 37° C. and rinsed extensively before measuring p24 content. Lower panel: In some experiments, similarly treated IM-MDDCs were pulsed with NL4-3balenv for 2 h at 37° C., rinsed extensively, and maintained in complete culture medium supplemented with GM-CSF and IL-4 for up to 9 days with medium replenishment every 3 days. Cell-free culture supernatants were quantified by measuring p24 content. Data shown correspond to the means±SEM of 3 independent experiments performed in triplicate. The asterisks denotes statistically significant data (*, P<0.05; **, P<0.01; ***, P<0.001).
(§3) For assessing binding/entry, iMDDCs (3×10^5 cells in a final volume of 300 μl) were pre-treated with 10 μM of different chemical inhibitors for 10 min and exposed to NL4-3/Balenv (30 ng of p24) for 60 min at 37° C. After three washes with PBS, cells were re-suspended in PBS containing 1% BSA. The p24 content was determined by ELISA, while susceptibility of iMDDCs to HIV-1 infection was assessed by initially exposing 3×10^5 cells to NL4-3/Balenv (30 ng) at 37° C. for 2 h. After three washes with PBS, cells were maintained in complete RPMI 1640 supplemented with GM-CSF and IL-4 in 96-well plates, in a final volume of 200 μl. Every 3 days and for a 9-day period, half of the conditioned medium was collected and kept at −20° C. until assayed. Virus production was estimated as above by measuring p24 levels by ELISA.

HIV-1 (NL4-3/Balenv) [2] = assay: HIV-1 infection assay on iMDDCs (p24 in supernatant); settings: IM-MDDCs, NL4-3balenv 2 h, culture up to 9 days
Protocol: as §2, §3

Structure (SMILES) | HIV-1 attachment to Raji-CD4-DCIR cells (DCIR) | HIV-1 production (HIV-1 (NL4-3)) | HIV-1 binding to DC-SIGN (DC-SIGN) | HIV-1 binding to DCs (HIV-1 (NL4-3/Balenv) [1]) | productive infection of DCs (HIV-1 (NL4-3/Balenv) [2])
O=C(/C=C/C=C/c1ccccc1)c1ccccc1 [Compound A1, 1,5-diphenyl-2,4-pentadien-1-one] | statistically significant decrease; also recorded: proved active against HIV-1 binding | decreased HIV-1 production only in DCIR-expressing cells | do not block HIV-1 attachment to DC-SIGN | decreased significantly | blocked productive infection
O=C(c1ccccc1)c1cc2ccccc2o1 [Compound B1, 1-benzofuran-2-yl(phenyl)methanone] | statistically significant decrease; also recorded: proved active against HIV-1 binding | decreased HIV-1 production only in DCIR-expressing cells | do not block HIV-1 attachment to DC-SIGN | decreased significantly | blocked productive infection
Cc1ccc(/N=[N+](\[O-])c2ccc(C)cc2)cc1 [Compound B2, 1-methyl-4-[(4-methylphenyl)-NNO-azoxy]benzene] | statistically significant decrease | decreased HIV-1 production only in DCIR-expressing cells | do not block HIV-1 attachment to DC-SIGN | decreased significantly | blocked productive infection
